One may read the IC50 as the concentration needed to halve the response being measured.

For 91 molecules, IC50 results are on record in PubChem BioAssay AID540252 (Sanford-Burnham Center for Chemical Genomics, 2011).

Calls of active or inactive are those of the source. No rule for the calls is given here.

The assay has as its target glucose-6-phosphate dehydrogenase-6-phosphogluconolactonase (Plasmodium falciparum 3D7). Nature of the assay: inhibition of P. falciparum G6PD activity – biochemical, end-point NADPH detection, orthogonal assay, dose response (AID 540252). The conditions noted are these: purified PfG6PD enzyme, NADPH direct detection.
On to `CCOC(=O)c1sc(NC(=O)CSc2nnc(Cc3ccccc3)o2)c(C#N)c1C`, for which the IC50 was > 80 µM (inactive). As for `N#C/C(C(=O)Nc1ccc(Cl)cc1)=C(/S)Nc1ccccc1`, the figure is > 80 µM (inactive); as for `CCCn1cc(S(=O)(=O)CC(=O)Nc2ccc(OC)cc2OC)c2ccccc21`, > 80 µM (inactive). Turning to `O=S(=O)(Nc1cccc2cccnc12)c1ccccc1`, the IC50 is > 80 µM (inactive). As to `Cc1ccc(-c2nc(N3CCOCC3)s[n+]2-c2ccccc2)cc1`, the IC50 is > 80 µM (inactive). With `Cc1cccc(-n2c(=S)[nH]c3sc4c(c3c2=O)CCc2ccccc2-4)c1` the figure was > 80 µM (inactive). With `O=[N+]([O-])c1ccc(-[n+]2ccc3ccccc3c2)c([N+](=O)[O-])c1` the figure was > 80 µM (inactive); with `C=CCOc1c(Cl)cc(CNc2ccc(N(C)C)cc2)cc1OC`, > 80 µM (inactive).

For `COc1ccc(/C=C/c2nc3ccccc3n2Cc2ccc(OC)c(OC)c2)cc1`, the IC50 was > 80 µM (inactive). With `CCOC(=O)CSc1nnc(NC(=O)c2cccc([N+](=O)[O-])c2)s1` the figure was > 80 µM (inactive); with `O=C(Cn1sc2ccccc2c1=O)Nc1ccc(Cl)cc1`, 15.2 µM. As for `Cc1cc(O)c(C(C)C)cc1N=Cc1ccc([N+](=O)[O-])cc1`, the figure is > 80 µM (inactive). With `CCc1ccc(S(=O)(=O)Nc2cc(SCC(=O)O)c(O)c3ccccc23)cc1` the figure was > 80 µM (inactive); with `CC(=O)Nc1cc([N+](=O)[O-])ccc1OCc1ccccc1`, > 80 µM (inactive); with `CN(C)c1ncc(C2=C(Cl)C(=O)C(N3CCCC3)=C(Cl)C2=O)s1`, > 80 µM (inactive). Take `COc1cc(-c2cc(OC)c(O)c(OC)c2)cc(OC)c1O`: the IC50 was > 80 µM (inactive). With `COc1ccc(-c2cn3cc(C)ccc3n2)cc1Br` the figure was > 80 µM (inactive). With `COc1cccc(/C=N/NC(=O)CSc2cccc3cccnc23)c1` the figure was > 80 µM (inactive). With `Cc1cc(C)c2sc(NC(=O)C3=COCCO3)nc2c1` the figure was > 80 µM (inactive); with `COc1ccc(/C=C/c2nc3ccccc3n2C)cc1`, > 80 µM (inactive). Turning to `COc1ccc(CN(C)S(=O)(=O)c2nnc(NC(=O)c3cccc(C)c3)s2)cc1OC`, the IC50 is > 80 µM (inactive). For the molecule `COc1cc(N)c2ncccc2c1OC`, the IC50 is > 80 µM (inactive). As for `COc1cc(CNc2ccc3[nH]c(=O)[nH]c3c2)ccc1OCc1ccccc1`, the figure is > 80 µM (inactive).

With `Cc1cc(C)nc(NC(N)=NCCc2ccccc2)n1`, the IC50 is > 80 µM (inactive).

As for `C[C@]12CC[C@@H]3c4ccc(O)c(O)c4CC[C@H]3[C@@H]1CC[C@@H]2O`, the IC50 was 22.3 µM. On to `COc1cc(NCCCn2cnc3c(OCc4ccccc4)ncnc32)cc(OC)c1OC`, for which the IC50 was > 80 µM (inactive). As for `Cc1cc(SCC(=O)N/N=C/c2ccco2)nc2ccccc12`, the figure is > 80 µM (inactive); as for `C/C(Cn1nnc([N+](=O)[O-])n1)=N\NC(=O)c1ccc(O)cc1`, > 80 µM (inactive). As for `COc1cc(-c2nnc3n2N=C(c2ccccc2)CS3)cc(OC)c1OC`, the figure is > 80 µM (inactive); as for `CC(C)Nc1ccc(Nc2ccccc2)cc1`, > 80 µM (inactive); as for `Nc1ccc(S(=O)(=O)c2cc(O)c3ccccc3c2O)cc1`, > 80 µM (inactive). With `CN1CC[C@@]2(C)c3cc(O)ccc3N(C)[C@@H]12` the figure was > 80 µM (inactive); with `COc1ccccc1N1CSC2=C(C#N)C(c3ccc(SC)cc3)CC(=O)N2C1` (stereo unspecified), > 80 µM (inactive). In the case of `COc1cc(Sc2ccc(C)cc2)c(OC)cc1N`, the IC50 was > 80 µM (inactive). As for `Cc1ccc(N2CC(C(=O)OCC(=O)c3ccc([N+](=O)[O-])cc3)CC2=O)cc1` (stereo unspecified), the figure is 50.9 µM.

`O=C(Nc1nnc(S(=O)(=O)N2CCCCC2)s1)c1ccc(Cl)cc1`: the IC50 is > 80 µM (inactive). With `COc1ccc(C(=O)c2c(C(F)(F)F)oc3c2C(=O)c2ccccc2C3=O)cc1` the figure was > 80 µM (inactive); with `c1nc(SSc2ncnc3nc[nH]c23)c2[nH]cnc2n1`, 28.7 µM; with `O=C1NC(=O)N(c2ccccc2)C(=O)/C1=C/c1ccc([N+](=O)[O-])s1`, > 80 µM (inactive). As for `Cc1ccc(NC(=O)Cn2sc3ccccc3c2=O)cc1`, the figure is 15 µM; as for `COc1ccc(CNC(=O)Cc2cn(C)c3ccccc23)c(OC)c1`, > 80 µM (inactive). As for `COc1cc(N=c2ssnc2Cl)cc(OC)c1OC`, the figure is 54 µM. For the molecule `Cc1nc2ccc(Nc3nc4cc(S(=O)(=O)N5CCOCC5)ccc4o3)cc2s1`, the IC50 is > 80 µM (inactive). With `O=C1NC(=S)NC(=O)C1=Cc1ccc(Br)s1` the figure was > 80 µM (inactive). As for `Cc1[nH]c(=S)c(C#N)c(C)c1CCC#N`, the figure is > 80 µM (inactive); as for `O=C1C=CC(=O)N1c1ccc2c(c1)C(NC(=O)C(F)(F)F)c1ccccc1-2` (stereo unspecified), 20 µM; as for `Cc1ccc(S(=O)(=O)SC/C=C/CSS(=O)(=O)c2ccc(C)cc2)cc1`, 64.4 µM.

As for `N#Cc1ccc(Oc2cccc3cccnc23)c([N+](=O)[O-])c1`, the IC50 was > 80 µM (inactive). `Cc1ccc2nc3sc(C(=O)N4CCOCC4)c(N)c3cc2c1`: the IC50 is > 80 µM (inactive). With `COc1cc(/C=C2\CC/C(=C\c3cc(OC)c(O)c(OC)c3)C2=O)cc(OC)c1O` the figure was > 80 µM (inactive); with `CC(=O)Nc1cc2c(cc1[N+](=O)[O-])-c1ccccc1C2O` (stereo unspecified), 74.5 µM. With `O=C(Sc1n[nH]c(=O)[nH]c1=O)c1ccccc1` the figure was 23.3 µM; with `CC(NC1=CC(=O)c2cccnc2C1=O)C(O)c1ccccc1` (stereo unspecified), > 80 µM (inactive); with `COc1cc(CN2CCN(CCCc3ccccc3)C(CCO)C2)cc(OC)c1O` (stereo unspecified), > 80 µM (inactive).

As for `CCn1c(N)c(C(=O)NC)sc1=S`, the IC50 is > 80 µM (inactive).

`CCCCOc1ccc(Cc2n[nH]c(=S)n2N)cc1`: the IC50 was > 80 µM (inactive). For the molecule `C(=N\Nc1nc2ccccc2[nH]1)/c1ccccn1`, the IC50 is > 80 µM (inactive).

As for `CCOC(=O)c1ccc(/[N+]([O-])=C/c2ccccc2)cc1`, the IC50 is > 80 µM (inactive). With `Cc1ccc(NC(=O)c2cc(C)n(-c3ccccc3)c2C)cc1` the figure was > 80 µM (inactive).

Regarding `O=[N+]([O-])c1ccc(Sc2cccc3cccnc23)c2cccnc12`, the IC50 was > 80 µM (inactive). With `Cc1cc(C)c(S(=O)(=O)/N=C2/C=C(SCC(=O)O)C(=O)c3ccccc32)cc1C` the figure was > 80 µM (inactive); with `CC(=O)Nc1ccc2sn(-c3ccccc3)c(=O)c2c1`, 18.2 µM; with `c1ccc(SSc2ccccn2)nc1`, 60.8 µM. With `Cc1ccc(S(=O)(=O)Oc2cccc(/C=N/Nc3ccc(C(=O)O)cc3)c2)cc1` the figure was > 80 µM (inactive); with `N#Cc1c(C#N)c(SSc2c(C#N)c(C#N)c(N)n2-c2ccccc2)n(-c2ccccc2)c1N`, > 80 µM (inactive). As for `Cc1nc(COC(=O)c2cc(O)c3ccccc3c2O)cs1`, the figure is > 80 µM (inactive). As for `CCOC(=O)c1cnc2ccc(C)cc2c1Sc1ccccc1C(=O)OC`, the IC50 was > 80 µM (inactive). With `Nn1c(SCC(=O)Nc2cccnc2Cl)nnc1-c1ccccc1` the figure was > 80 µM (inactive); with `COc1ccc(-n2sc3ccccc3c2=O)cc1`, 13.3 µM; with `O=C(CN1C(=O)C2C3C=CC(C3)C2C1=O)OCC(=O)c1ccc([N+](=O)[O-])cc1` (stereo unspecified), 56.7 µM. Turning to `CN(C)c1ccc(C=c2c3ccccc3n3c2c2ccccc2[n+]3C)cc1`, the IC50 was > 80 µM (inactive).

Regarding `CCc1cc(-c2n[nH]c(C)c2-c2nc3ccccc3n2C)c(O)cc1O`, the IC50 was > 80 µM (inactive). With `Cc1cccc(C(=O)Nc2nnc(S(=O)(=O)N3CCOCC3)s2)c1` the figure was > 80 µM (inactive); with `C=CCN=c1scc(-c2ccco2)n1/N=C/c1ccc(O)c(O)c1O`, > 80 µM (inactive). With `CN1CCN(C(=O)c2sc(=S)n(-c3ccccc3)c2N)CC1`, the IC50 was 54.6 µM. As for `O=C(COC(=O)c1cnccn1)c1ccc([N+](=O)[O-])cc1`, the figure is 54.9 µM; as for `CC1(OC(=O)C2CCCC2)C(=O)C=C2C=C(c3ccsc3)N(CCc3c[nH]c4ccccc34)C=C2C1=O` (stereo unspecified), > 80 µM (inactive); as for `c1ccc(-c2nc(N3CCOCC3)s[n+]2-c2ccccc2)cc1`, > 80 µM (inactive). As for `O=C(O)c1cccc(N2C(=O)C=CC2=O)c1`, the figure is 67.4 µM; as for `Cc1cc(=O)[nH]c(N/N=C/c2c(C)nn(-c3ccccc3)c2Cl)n1`, 19.9 µM. As for `COc1cccc(CNc2ccc3[nH]c(=O)[nH]c3c2)c1OCc1ccc(F)cc1`, the figure is > 80 µM (inactive); as for `CCCCC1C(=O)N(c2ccccc2)N(c2ccc(O)cc2)C1=O` (stereo unspecified), > 80 µM (inactive).

With `CCc1ccc(OCC(=O)N/N=C/c2cc([N+](=O)[O-])ccc2N2CCOCC2)cc1`, the IC50 was > 80 µM (inactive).

In the case of `Cc1ccc(/C=C/C(=O)Nc2ccc([N+](=O)[O-])c(NC(=O)/C=C/c3ccc(C)o3)c2)o1`, the IC50 is 33.6 µM. With `Cc1ccc(-n2sc3ccccc3c2=O)cc1` the figure was 24.8 µM; with `O=C(CCc1ccc(S(=O)(=O)N2CCOCC2)cc1)N/N=C/c1ccc(O)c(O)c1O`, > 80 µM (inactive).

Turning to `CC1(C)CN(c2ccccc2)N(C(=O)c2ccc(C#N)cc2)C1=O`, the IC50 is > 80 µM (inactive). Consider `O=C(O)CSc1cc(NS(=O)(=O)c2ccc(Cl)cc2)c2ccccc2c1O`, for which the IC50 is > 80 µM (inactive). For the molecule `CCN1CCCC1CNC(=O)c1ccc2c(c1)NC(=O)/C(=C\c1ccc(C)cc1)S2` (stereo unspecified), the IC50 was > 80 µM (inactive).

Regarding `Cc1ccc(-c2nn(C)c(=O)c3ccccc23)cc1CNC(=O)/C=C/c1ccccc1`, the IC50 was > 80 µM (inactive).

For `[O-]/[N+](=C\c1ccncc1)c1ccccc1`, the IC50 was > 80 µM (inactive).
